Results from US9873702B2, “Heterocyclic compounds as biogenic amine transport modulators” (Southern Research Institute, priority 2014, dated 2018).
Read-outs that look alike come from different tables or passages of the source.

Tests used:
[1] = target: T1, serotonin transporter (SERT) (Rattus norvegicus, UniProt P31652); experiment: Serotonin reuptake ([^3H]serotonin uptake) inhibition in rat brain synaptosomes; format: biochemical; details: for IC50: read-out: SERT Uptake IC50; for Emax: read-out: SERT Uptake Emax
T1 construct: Freshly removed whole brain minus cerebellum and caudate was homogenized; from tissue; host or cells: rat whole brain minus cerebellum and caudate, synaptosomes
T1 sequence (P31652 whole entry): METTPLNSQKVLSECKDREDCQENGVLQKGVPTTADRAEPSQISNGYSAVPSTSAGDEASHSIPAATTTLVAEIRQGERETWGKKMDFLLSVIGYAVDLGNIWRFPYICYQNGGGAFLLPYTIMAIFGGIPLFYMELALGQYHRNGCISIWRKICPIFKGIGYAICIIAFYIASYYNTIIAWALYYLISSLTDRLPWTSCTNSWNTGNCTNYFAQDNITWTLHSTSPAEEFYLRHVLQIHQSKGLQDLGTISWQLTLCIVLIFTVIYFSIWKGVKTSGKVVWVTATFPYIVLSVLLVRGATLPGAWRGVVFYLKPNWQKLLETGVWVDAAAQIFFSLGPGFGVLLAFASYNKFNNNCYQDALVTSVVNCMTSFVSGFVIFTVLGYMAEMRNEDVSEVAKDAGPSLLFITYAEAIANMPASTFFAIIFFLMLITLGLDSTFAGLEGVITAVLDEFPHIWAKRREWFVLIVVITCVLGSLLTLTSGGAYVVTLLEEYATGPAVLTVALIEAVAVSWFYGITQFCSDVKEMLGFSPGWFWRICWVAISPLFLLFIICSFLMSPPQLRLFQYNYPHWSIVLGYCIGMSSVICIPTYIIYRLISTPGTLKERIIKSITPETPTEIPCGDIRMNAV

[2] = target: T2, dopamine transporter (DAT) (Rattus norvegicus, UniProt P23977); experiment: Dopamine reuptake ([^3H]dopamine uptake) inhibition in rat brain synaptosomes
T2 sequence (P23977 whole entry): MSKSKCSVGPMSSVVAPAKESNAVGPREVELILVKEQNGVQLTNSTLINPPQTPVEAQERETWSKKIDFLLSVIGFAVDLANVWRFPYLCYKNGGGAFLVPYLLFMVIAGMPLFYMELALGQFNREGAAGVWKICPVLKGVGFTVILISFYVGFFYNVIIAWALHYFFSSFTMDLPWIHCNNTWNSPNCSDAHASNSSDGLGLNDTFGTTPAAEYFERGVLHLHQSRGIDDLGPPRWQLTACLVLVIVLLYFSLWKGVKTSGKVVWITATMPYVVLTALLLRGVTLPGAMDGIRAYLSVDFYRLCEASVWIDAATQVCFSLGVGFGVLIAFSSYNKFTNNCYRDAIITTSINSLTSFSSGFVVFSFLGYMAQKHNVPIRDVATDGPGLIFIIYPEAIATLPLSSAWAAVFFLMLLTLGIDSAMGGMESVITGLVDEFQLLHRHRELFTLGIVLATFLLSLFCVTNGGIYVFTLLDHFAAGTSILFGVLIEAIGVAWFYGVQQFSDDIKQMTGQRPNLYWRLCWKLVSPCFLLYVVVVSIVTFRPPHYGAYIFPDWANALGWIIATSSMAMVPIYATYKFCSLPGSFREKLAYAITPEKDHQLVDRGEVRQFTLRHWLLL

[3] = target: T2, dopamine transporter (DAT); experiment: Dopamine transporter-mediated [^3H]MPP^+ release, shift of D-amphetamine-induced release, rat caudate synaptosomes; format: biochemical; parameters: Freshly removed caudate was homogenized in 10% ice-cold sucrose; from tissue; host or cells: rat caudate synaptosomes
[4] = target: norepinephrine transporter (NET) (Rattus norvegicus, UniProt Q9WTR4); experiment: Norepinephrine reuptake ([^3H]norepinephrine uptake) inhibition in rat brain synaptosomes; details: for NE Uptake Emax (% I ± SD): maximal inhibition from dose-response fit
Procedure: Freshly removed whole brain minus cerebellum and caudate was homogenized in 10% ice-cold sucrose with 12 strokes of a hand-held Potter-Elvehjem homogenizer followed by centrifugation at 1000×g for 10 minutes. The supernatants were saved on ice and used immediately. Transporter activity at NET was assessed using 10 nM [^3H]norepinephrine. […] Uptake inhibition assays were conducted at 37° C. and were initiated by adding 100 μL of tissue to 900 μL assay buffer containing test drug and [^3H]norepinephrine. Test drugs were diluted in assay buffer containing 1 mg/mL bovine serum albumin. Nonspecific uptake was measured by incubating in the presence of 10 μM indatraline. The reactions were stopped after 10 minutes by rapid vacuum filtration with a cell harvester (BRANDEL) over GF/B filters (Whatman) presoaked in wash buffer maintained at 25° C. (10 mM Tris-HCl, pH 7.4/150 mM NaCl). Filters were rinsed with 6 mL wash buffer and retained tritium was quantified by a MicroBeta liquid scintillation counter (PerkinElmer) after overnight extraction in 0.6 mL of liquid scintillation cocktail (Cytoscint, ICN). The data from three experiments were pooled and fit to a dose-response curve equation (using Kaleidagraph), to yield an Emax and EC50 value.
The data from three experiments were pooled and fit to a dose-response curve equation (using KaleidaGraph; Synergy Software, Reading, Pa.) to yield an Emax and IC50 value.

DAT = target: T3, DAT (Rattus norvegicus, UniProt P23977); experiment: Dopamine transporter binding, inhibition of [^3H]WIN35428 binding in rat caudate membranes; details: for Emax: 2 h, read-out: DAT Binding εmax; for EC50: read-out: WIN Binding EC50 (μM ± SD)
T3 construct: from tissue; host or cells: rat caudate membranes
T3 sequence (P23977 whole entry): as above
Procedure: The ability of test drugs to inhibit [^3H]WIN35428 binding to DAT in rat caudate membranes was assessed as follows. For each experiment, caudates from four rat brains were suspended in 15 mL ice cold assay buffer (50 mM sodium phosphate pH 7.4) and homogenized using a polytron (setting 6, 20 sec). The homogenate was centrifuged at 30,000×g for 10 minutes at 4° C. The pellet was resuspended with vigorous vortexing in 15 mL fresh ice cold assay buffer, and the centrifugation was repeated. The pellet was resuspended in 15 mL fresh ice cold assay buffer with vigorous vortexing followed by six strokes with a glass-on-glass hand-held homogenizer and was diluted to a final volume of 235 mL in ice cold assay buffer. [^3H]WIN35428 was diluted to 10 nM in assay buffer that contained 25 μg/mL chymostatin, 25 μg/mL leupeptin, 0.1 mM EDTA, and 0.1 mM EGTA. Each assay tube contained 0.75 mL membrane preparation, 0.15 mL test drug diluted in assay buffer containing 1 mg/mL bovine serum albumin, and 0.1 mL [^3H]WIN35428 preparation (final concentration of 1 nM). Assays were initiated by the addition of membranes and were terminated after 2 hours at 25° C. by rapid vacuum filtration. Retained tritium was measured as described. The data from three experiments were pooled and fit to a dose-response curve equation (using Kaleidagraph), to yield an Emax and EC50 value.

[5] = DAT Uptake IC50, [3H]DA uptake inhibition, mean ± S.D., n = 3
[6] = IC50 for DAT Uptake Inhibition, rounded value as listed in Table 10
[7] = read-out: Emax for DAT Uptake Inhibition
[8] = rat brain synaptosomes, 10 nM [^3H]norepinephrine
[9] = read-out: NE Uptake EC50 (nM ± SD), rat brain synaptosomes, 10 nM [^3H]norepinephrine, 10 min, 37° C.
[10] = read-out: NET Uptake IC50, mean ± S.D., n = 3
[11] = inhibition of [3H]WIN35428 binding, mean ± S.D., n = 3
[12] = apparent Ke from shift of D-amphetamine-induced [^3H]MPP^+ release, compound at the concentration of column 1, read-out: Ke App

SMILES | IC50 ([1]; mean ± S.D., n = 3) [nM] | IC50 [2, 5] [nM] | Emax ([2]; read-out: DAT Uptake Emax) [%] | NET Uptake Emax ([4]; mean ± S.D., n = 3) [%] | NE Uptake Emax (% I ± SD) [4, 8] [% I] | IC50 [4, 9] [nM] | IC50 [4, 10] [nM] | Emax (DAT) [%] | Emax ([1]; mean ± S.D., n = 3) [%] | other results
Cl.Fc1ccc2c(NCC(c3ccccc3)c3ccccc3)nc(-c3ccc4nccn4c3)nc2c1 [compound 124, N-(2,2-Diphenylethyl)-7-Fluoro-2-(Imidazo[1,2-A]Pyridin-6-yl)Quinazolin-4-Amine Hydrochloride] | 25 ± 7 | 7.4 ± 1.1 | 69 ± 1 | 63 ± 3 | 63 ± 3 | 94 ± 22 | 94 ± 22 |  |  | Emax [1]: 49 ± 2%; IC50 [2, 6]: 7 nM; Emax [2, 7]: 69%; Apparent Kc [3]: 3200 nM; Kb [3]: 3200 nM; D-Amphetamine Emax (% ± SD) ([3]; Emax of D-amphetamine for [^3H]MPP^+ release in presence of 200 nM test compound): 104 ± 5%; DAT Binding IC50 (DAT; [11]): Inactive; DAT Binding εmax (DAT; [11]): Inactive
CS(=O)(=O)Nc1ccc(-c2nc(NCC(O)(c3ccccc3)c3ccccc3)c3ccccc3n2)cc1 [SRI-30504] | 50 ± 14 | 11 ± 2 |  | 70 ± 2 |  |  | 426 ± 49 | 47 ± 7 |  | 
CN(C)c1ncc(-c2nc(NCC(O)(c3ccccc3)c3ccccc3)c3ccccc3n2)cn1 [compound 80, 2-((2-(2-(Dimethylamino)Pyrimidin-5-yl)Quinazolin-4-yl)Amino)-1,1-Diphenylethanol] | 54 ± 7 | 13 ± 2 | 73 ± 2 | 71 ± 2 | 71 ± 2 | 259 ± 41 | 259 ± 41 | 47 ± 6 | 51 ± 1 | 
c1ccc(C(CNc2nc(-c3cnc4nccn4c3)nc3ccccc23)c2ccncc2)cc1 (stereo not drawn) [compound 110, 2-(Imidazo[1,2-A]Pyrimidin-6-yl)-N-(2-Phenyl-2-(Pyridin-4-yl)Ethyl)Quinazolin-4-Amine] | 11 ± 3 | 5.6 ± 0.8 | 64 ± 1 | 69 ± 2 | 69 ± 2 | 60 ± 10 | 60 ± 10 | 25 ± 2 | 51 ± 2 | IC50 [2, 6]: 6 nM; Emax [2, 7]: 64%; D-Amphetamine Emax (% ± SD) ([3]; Emax of D-amphetamine for [^3H]MPP^+ release in presence of 150 nM test compound): 104 ± 5%; Apparent Kc ([3]; [3H]MPP+ release, Apparent Kc = [Blocker]/((EC50-2/EC50-1) − 1), negative when shifted EC50 is less than control): 1200 nM; Kb [3, 12]: 1200 nM
c1ccc(C(CCNc2nc(-c3ccc4[nH]ccc4c3)nc3ccccc23)c2ccccc2)cc1 [compound 21, N-(3,3-Diphenylpropyl)-2-(1H-Indol-5-yl)Quinazolin-4-Amine] |  |  |  |  | 77 ± 3 | 346 ± 59 |  |  |  | D-Amphetamine Emax (% ± SD) ([3]; Emax of D-amphetamine for [^3H]MPP^+ release in presence of 500 nM test compound): 78 ± 2%; Kb [3, 12]: 886 nM; effect on the d-amphetamine Emax value, in words ([3]; d-amphetamine-induced DAT-mediated [^3H]MPP^+ release, blocking concentration ˜25 times IC50 for DAT uptake inhibition): no significant effect; EC50 (DAT): 0.2 µM
CS(=O)(=O)Nc1ccc(-c2nc(NCC(c3ccccc3)c3ccccc3)c3ccccc3n2)c(Cl)c1 [SRI-31043] | 22 ± 5 | 11 ± 1 |  | 67 ± 2 |  |  | 47 ± 10 | 30 ± 3 |  | 
c1ccc(C(CNc2nc(-c3ccc4nccn4c3)nc3ccccc23)c2cccnc2)cc1 (stereo not drawn) [compound 131, 2-(Imidazo[1,2-A]Pyridin-6-yl)-N-(2-Phenyl-2-(Pyridin-3-yl)Ethyl)Quinazolin-4-Amine] | 35 ± 11 | 21 ± 3 | 70 ± 2 | 75 ± 3 | 75 ± 3 | 78 ± 17 | 78 ± 17 | 44 ± 3 | 59 ± 3 | 
OC(CNc1nc(-c2cnc3nccn3c2)nc2ccccc12)(c1ccccc1)c1ccccc1 [compound 99, 2-((2-(Imidazo[1,2-A]Pyrimidin-6-yl)Quinazolin-4-yl)Amino)-1,1-Diphenylethanol] | 3.9 ± 0.4 | 9.3 ± 1.1 | 65 ± 1 | 76 ± 9 | 76 ± 3 | 69 ± 18 | 69 ± 18 | 34 ± 3 | 56 ± 1 | 
c1ccc(C(CNc2nc(-c3ccc4nccn4c3)nc3ccccc23)C2CCCCC2)cc1 (stereo not drawn) [compound 100, N-(2-Cyclohexyl-2-Phenylethyl)-2-(Imidazo[1,2-A]Pyridin-6-yl)Quinazolin-4-Amine] | 83 ± 28 | 12 ± 2 | 72 ± 2 | 65 ± 4 | 65 ± 4 | 153 ± 55 | 153 ± 55 | 50 ± 4 | 59 ± 4 | 
CNc1ncc(-c2nc(NCC(c3ccccc3)c3ccccc3)c3ccccc3n2)cn1 [compound 41, N-(2,2-Diphenylethyl)-2-(2-(Methylamino)Pyrimidin-5-yl)Quinazolin-4-Amine] | 57 ± 18 | 11 ± 1 | 71 ± 1 | 78 ± 2 | 78 ± 2 | 179 ± 27 | 179 ± 27 | 59 ± 6 | 60 ± 3 | 
Cc1cc(NS(C)(=O)=O)ccc1-c1nc(NCC(c2ccccc2)c2ccccc2)c2ccccc2n1 [SRI-30828] | 20 ± 5 | 8.9 ± 1.6 |  | 65 ± 3 |  |  | 144 ± 30 | 60 ± 7 |  | 
CN(C)c1ncc(-c2nc(NCCC(c3ccccc3)c3ccccc3)c3ccccc3n2)cn1 [compound 20, N-(3,3-Diphenylpropyl)-2-(2-(Dimethylamino)Pyrimidin-5-yl)Quinazolin-4-Amine] |  |  |  |  | 64 ± 5 | 8130 ± 2270 |  |  |  | D-Amphetamine Emax (% ± SD) ([3]; Emax of D-amphetamine for [^3H]MPP^+ release in presence of 12500 nM test compound): 103 ± 2%; Kb [3, 12]: 64600 nM; EC50 (DAT): 2.2 ± 0.5 µM
Cc1cc(NS(C)(=O)=O)ccc1-c1nc(NCC(c2ccccc2)c2ccncc2)c2ccccc2n1 (stereo not drawn) [SRI-31039] | 8 ± 2.8 | 7.4 ± 2 |  | 71 ± 3 |  |  | 31 ± 7 | 72 ± 7 |  | 
Cn1cc2cc(-c3nc(NCC(c4ccccc4)c4ccccc4)c4ccccc4n3)ccc2n1 [compound 66, N-(2,2-Diphenylethyl)-2-(2-Methyl-2H-Indazol-5-yl)Quinazolin-4-Amine] | 106 ± 19 | 19 ± 4 | 69 ± 2 | 71 ± 3 | 71 ± 3 | 229 ± 43 | 229 ± 43 | 58 ± 3 | 61 ± 2 | 
OC(CNc1nc(-c2ccc3[nH]ccc3c2)nc2ccccc12)(c1ccccc1)c1ccccc1 [compound 81, 2-((2-(1H-Indol-5-yl)Quinazolin-4-yl)Amino)-1,1-Diphenylethanol] | 35 ± 9 | 11 ± 2 | 70 ± 2 | 73 ± 6 | 73 ± 6 | 203 ± 79 | 203 ± 79 | 55 ± 3 | 57 ± 2 | 
c1ccc(C(CNc2nc(-c3cnc4nccn4c3)nc3ccccc23)c2ccccn2)cc1 (stereo not drawn) [compound 98, 2-(Imidazo[1,2-A]Pyrimidin-6-yl)-N-(2-Phenyl-2-(Pyridin-2-yl)Ethyl)Quinazolin-4-Amine] | 28 ± 6 | 18 ± 3 | 71 ± 2 | 77 ± 2 | 77 ± 2 | 132 ± 16 | 132 ± 16 | 62 ± 7 | 54 ± 2 | 
CSc1ncc(-c2nc(NCC(c3ccccc3)c3ccccc3)c3ccccc3n2)cn1 [compound 30, N-(2,2-Diphenylethyl)-2-(2-(Methylthio)Pyrimidin-5-yl)Quinazolin-4-Amine] | 56 ± 21 | 9 ± 1.5 | 71 ± 2 | 62 ± 3 | 62 ± 3 | 204 ± 47 | 204 ± 47 | 63 ± 4 | 52 ± 3 | 
